Reference: patent US12414980B2, “Pharmaceutical composition comprising RUNX3 protein and CDK4 inhibitor or mTOR inhibitor cotreatment for prevention or treatment of cancer” (GeneCraft Inc., priority 2020, dated 2025)

Assays:
[1] = system: Runx3-BRD2 complex; experiment: Runx3-BRD2 complex formation after serum stimulation, immunoprecipitation (IP) and immunoblotting (IB); type: cell-based; conditions: for time for which the binding of Runx3 and BRD2 was maintained: after serum stimulation
[2] = system: p300-RUNX3 complex; conditions: treatment with MEK1 inhibitor (1 μM per methods); FIG. 3a
[3] = system: H460 lung cancer cell line; conditions: administered simultaneously with adenovirus expressing Runx3 protein, FIG. 8
[4] = system: PANC1 pancreatic cancer cell line; conditions: administered simultaneously with adenovirus expressing Runx3 protein, FIG. 8
[5] = system: normal cells; conditions: cited from earlier work
[6] = system: ARF; experiment: time-dependent expression of ARF after serum stimulation, immunoblotting (IB); type: cell-based; conditions: suppression of mTOR using rapamycin (100 nM per methods); FIG. 3h
Description: HDAC4 siRNA was purchased from Cell Signaling Technology.

physical binding between Runx3 and Brd2 8 hours after serum stimulation ([1]; CDK4 inhibitor at 1 nM) | SMILES | binding of BRD2-RUNX3 ([1]; treatment with MEK1 inhibitor (1 μM per methods), FIG. 3a) | binding of p300-RUNX3 [2] | cancer apoptotic effect versus adenovirus expressing Runx3 protein alone [3] | time for which the binding of Runx3 and BRD2 was maintained ([1]; CDK4 inhibitor present at 11 nM, FIG. 5) | cancer apoptotic effect versus adenovirus expressing Runx3 protein alone [4] | toxicity to normal cells ([5]; concentration of 11 nM) | time to which the expression of ARF was extended [6] | time for which the binding of Runx3 and BRD2 was maintained ([1]; mTOR inhibitor present at 100 nM, FIG. 6) | maintenance of Rpa-RX3-AC ([1]; suppression of mTOR using rapamycin (100 nM per methods), FIG. 3h) | cytotoxicity to normal cells ([5]; concentration of 100 nM)
 | N#CC(=C(/N)Sc1ccccc1N)/C(C#N)=C(\N)Sc1ccccc1N [U0126] | inhibited | inhibited |  |  |  |  |  |  |  | 
not observed | CC(=O)c1c(C)c2cnc(Nc3ccc(N4CCNCC4)cn3)nc2n(C2CCCC2)c1=O [PD0332991] |  |  | significantly increased | up to 8 hours | significantly increased | non-toxic |  |  |  | 
 | CO[C@H]1C[C@@H]2CC[C@@H](C)[C@@](O)(O2)C(=O)C(=O)N2CCCC[C@H]2C(=O)O[C@H]([C@H](C)C[C@@H]2CC[C@@H](O)[C@H](OC)C2)CC(=O)[C@H](C)/C=C(\C)[C@@H](O)[C@@H](OC)C(=O)[C@H](C)C[C@H](C)/C=C/C=C/C=C/1C [rapamycin] |  |  | significantly increased |  | significantly increased |  | up to 8 hours | up to 8 hours | maintained | non-cytotoxic
